According to ChEMBL document CHEMBL5252555, “Antimicrobial Polyketides from the Marine-Derived Fungus Spiromastix sp. SCSIO F190” (J Nat Prod, 2023):
Values after ≈ are worked out from the molar mass of the structure shown. Active and inactive are the calls of the source. The calls are words filed in the database; no cut-off is given here.

Assays:
[1] = system: Staphylococcus aureus; assay: Antibacterial activity against Staphylococcus aureus 991 assessed as inhibition of bacterial growth incubated for 18 hrs by broth microdilution method; type: functional
[2] = system: Staphylococcus simulans; assay: Antibacterial activity against Staphylococcus simulans AKA1 assessed as inhibition of bacterial growth incubated for 18 hrs by broth microdilution method; type: functional
[3] = system: Micrococcus luteus; assay: Antibacterial activity against Micrococcus luteus ML01 assessed as inhibition of bacterial growth incubated for 18 hrs by broth microdilution method; type: functional
[4] = system: Staphylococcus aureus; assay: Antibacterial activity against methicillin-resistant Staphylococcus aureus assessed as inhibition of bacterial growth incubated for 18 hrs by broth microdilution method; type: functional
[5] = system: Enterococcus faecium; assay: Antibacterial activity against Enterococcus faecium 36711 assessed as inhibition of bacterial growth incubated for 18 hrs by broth microdilution method; type: functional
[6] = system: Staphylococcus aureus; assay: Antibacterial activity against Staphylococcus aureus 6917 assessed as inhibition of bacterial growth incubated for 18 hrs by broth microdilution method; type: functional
[7] = system: Staphylococcus aureus; assay: Antibacterial activity against Staphylococcus aureus 16339 assessed as inhibition of bacterial growth incubated for 18 hrs by broth microdilution method; type: functional
[8] = system: Staphylococcus aureus; assay: Antibacterial activity against Staphylococcus aureus ATCC 29213 assessed as inhibition of bacterial growth incubated for 18 hrs by broth microdilution method; type: functional
[9] = system: Enterococcus faecium; assay: Antibacterial activity against Enterococcus faecium 36235 assessed as inhibition of bacterial growth incubated for 18 hrs by broth microdilution method; type: functional
[10] = system: Enterococcus gallinarum; assay: Antibacterial activity against Enterococcus gallinarum 5F52C assessed as inhibition of bacterial growth incubated for 18 hrs by broth microdilution method; type: functional
[11] = system: Staphylococcus aureus; assay: Antibacterial activity against Staphylococcus aureus 1862 assessed as inhibition of bacterial growth incubated for 18 hrs by broth microdilution method; type: functional
[12] = system: Enterococcus faecalis; assay: Antibacterial activity against Enterococcus faecalis ATCC 29212 assessed as inhibition of bacterial growth incubated for 18 hrs by broth microdilution method; type: functional
[13] = system: Staphylococcus aureus; assay: Antibacterial activity against Staphylococcus aureus 745324 assessed as inhibition of bacterial growth incubated for 18 hrs by broth microdilution method; type: functional
[14] = system: Staphylococcus aureus; assay: Antibacterial activity against Staphylococcus aureus 669 assessed as inhibition of bacterial growth incubated for 18 hrs by broth microdilution method; type: functional
[15] = system: Enterococcus faecium; assay: Antibacterial activity against Enterococcus faecium 35682 assessed as inhibition of bacterial growth incubated for 18 hrs by broth microdilution method; type: functional
[16] = system: Bacillus subtilis; assay: Antibacterial activity against Bacillus subtilis BS01 assessed as inhibition of bacterial growth incubated for 18 hrs by broth microdilution method; type: functional
[17] = system: Staphylococcus aureus; assay: Antibacterial activity against Staphylococcus aureus 718306 assessed as inhibition of bacterial growth incubated for 18 hrs by broth microdilution method; type: functional
[18] = system: Staphylococcus aureus; assay: Antibacterial activity against Staphylococcus aureus 16162 assessed as inhibition of bacterial growth incubated for 18 hrs by broth microdilution method; type: functional
[19] = system: Staphylococcus aureus; assay: Antibacterial activity against Staphylococcus aureus GDE4P037P assessed as inhibition of bacterial growth incubated for 18 hrs by broth microdilution method; type: functional
[20] = system: Enterococcus faecalis; assay: Antibacterial activity against Enterococcus faecalis 36950 assessed as inhibition of bacterial growth incubated for 18 hrs by broth microdilution method; type: functional
[21] = system: Staphylococcus aureus; assay: Antibacterial activity against Staphylococcus aureus 3090 assessed as inhibition of bacterial growth incubated for 18 hrs by broth microdilution method; type: functional
[22] = system: HeLa; assay: Cytotoxicity against human HeLa cells incubated for 48 hrs by CCK-8 assay; type: functional, cell-based
[23] = system: HUVEC; assay: Cytotoxicity against HUVEC cells incubated for 48 hrs by CCK-8 assay; type: toxicity, cell-based; details: human
[24] = system: HCT-116; assay: Cytotoxicity against human HCT-116 cells incubated for 48 hrs by CCK-8 assay; type: functional, cell-based
[25] = system: MCF7; assay: Cytotoxicity against human MCF7 cells incubated for 48 hrs by CCK-8 assay; type: functional, cell-based
[26] = system: RBE; assay: Cytotoxicity against human RBE cells incubated for 48 hrs by CCK-8 assay; type: functional, cell-based
[27] = system: A549; assay: Cytotoxicity against human A549 cells incubated for 48 hrs by CCK-8 assay; type: functional, cell-based
[28] = system: HepG2; assay: Cytotoxicity against human HepG2 cells incubated for 48 hrs by CCK-8 assay; type: functional, cell-based
[29] = Cytotoxicity against human LX2 cells incubated for 48 hrs by CCK-8 assay; type: toxicity, cell-based; details: lx-2, 48 h

SMILES	MIC [1]	MIC [2]	MIC [3]	MIC [4]	MIC [5]	MIC [6]	MIC [7]	MIC [8]	MIC [9]	MIC [10]	MIC [11]	MIC [12]	MIC [13]	MIC [14]	MIC [15]	MIC [16]	MIC [17]	MIC [18]	MIC [19]	MIC [20]	also measured
CC1(C)S[C@@H]2[C@H](NC(=O)[C@H](N)c3ccccc3)C(=O)N2[C@H]1C(=O)O [AMPICILLIN]	4 µg/mL (≈ 11.4 µM)	> 64 µg/mL	0.13 µg/mL (≈ 0.372 µM)	32 µg/mL (≈ 91.6 µM)	> 64 µg/mL	64 µg/mL (≈ 183 µM)	64 µg/mL (≈ 183 µM)	1 µg/mL (≈ 2.86 µM)	> 64 µg/mL	8 µg/mL (≈ 22.9 µM)	4 µg/mL (≈ 11.4 µM)	1 µg/mL (≈ 2.86 µM)	4 µg/mL (≈ 11.4 µM)	8 µg/mL (≈ 22.9 µM)	> 64 µg/mL	0.125 µg/mL (≈ 0.358 µM)	> 64 µg/mL				
CCCc1c(Cl)c(OC)c(Cl)c2c1Oc1c(Cl)c(O)c(Cl)c(CCC)c1C(=O)O2	1 µg/mL (≈ 2.08 µM)	0.25 µg/mL (≈ 0.521 µM)	0.5 µg/mL (≈ 1.04 µM)	1 µg/mL (≈ 2.08 µM)	2 µg/mL (≈ 4.17 µM)	2 µg/mL (≈ 4.17 µM)	1 µg/mL (≈ 2.08 µM)	4 µg/mL (≈ 8.33 µM)	2 µg/mL (≈ 4.17 µM)	1 µg/mL (≈ 2.08 µM)	1 µg/mL (≈ 2.08 µM)	1 µg/mL (≈ 2.08 µM)	2 µg/mL (≈ 4.17 µM)	1 µg/mL (≈ 2.08 µM)	2 µg/mL (≈ 4.17 µM)	0.125 µg/mL (≈ 0.26 µM)	2 µg/mL (≈ 4.17 µM)	1 µg/mL (≈ 2.08 µM)	2 µg/mL (≈ 4.17 µM)	0.25 µg/mL (≈ 0.521 µM)	MIC [21]: 1 µg/mL (≈ 2.08 µM)
CCCCC/C=C1/C(=O)C(CC=C(C)C)=C(C)C1O (stereo not drawn)	> 128 µg/mL	> 128 µg/mL	> 128 µg/mL	> 128 µg/mL	> 128 µg/mL	> 128 µg/mL	> 128 µg/mL	> 128 µg/mL	> 128 µg/mL	> 128 µg/mL	> 128 µg/mL	> 128 µg/mL	> 128 µg/mL	> 128 µg/mL	> 128 µg/mL	> 128 µg/mL	> 128 µg/mL	> 128 µg/mL	> 128 µg/mL	> 128 µg/mL	Activity [22]: inactive; Activity [23]: Non-Toxic; Activity [24]: inactive; Activity [25]: inactive; Activity [26]: inactive; Activity [27]: inactive; Activity [28]: inactive; MIC [21]: > 128 µg/mL; Activity [29]: Non-Toxic
CCCc1c(O)c(Oc2c(Cl)c(O)c(Cl)c3c2C(=O)O[C@H](C)C3)cc(OC)c1Cl	8 µg/mL (≈ 17.3 µM)	8 µg/mL (≈ 17.3 µM)	8 µg/mL (≈ 17.3 µM)	8 µg/mL (≈ 17.3 µM)	16 µg/mL (≈ 34.7 µM)	16 µg/mL (≈ 34.7 µM)	16 µg/mL (≈ 34.7 µM)	8 µg/mL (≈ 17.3 µM)	32 µg/mL (≈ 69.3 µM)	16 µg/mL (≈ 34.7 µM)	16 µg/mL (≈ 34.7 µM)	32 µg/mL (≈ 69.3 µM)	16 µg/mL (≈ 34.7 µM)	16 µg/mL (≈ 34.7 µM)	16 µg/mL (≈ 34.7 µM)	8 µg/mL (≈ 17.3 µM)	16 µg/mL (≈ 34.7 µM)	16 µg/mL (≈ 34.7 µM)	32 µg/mL (≈ 69.3 µM)	16 µg/mL (≈ 34.7 µM)	Activity [22]: inactive; Activity [23]: Non-Toxic; Activity [24]: inactive; Activity [25]: inactive; Activity [26]: inactive; Activity [27]: inactive; Activity [28]: inactive; MIC [21]: 8 µg/mL (≈ 17.3 µM); Activity [29]: Non-Toxic
CCCc1c(Cl)c(OC)c(Cl)c2c1OC(=O)c1c(CCC)c(Cl)c(O)c(Cl)c1O2	16 µg/mL (≈ 33.3 µM)	1 µg/mL (≈ 2.08 µM)	1 µg/mL (≈ 2.08 µM)	8 µg/mL (≈ 16.7 µM)	4 µg/mL (≈ 8.33 µM)	4 µg/mL (≈ 8.33 µM)	8 µg/mL (≈ 16.7 µM)	32 µg/mL (≈ 66.6 µM)	4 µg/mL (≈ 8.33 µM)	2 µg/mL (≈ 4.17 µM)	8 µg/mL (≈ 16.7 µM)	16 µg/mL (≈ 33.3 µM)	8 µg/mL (≈ 16.7 µM)	8 µg/mL (≈ 16.7 µM)	8 µg/mL (≈ 16.7 µM)	0.5 µg/mL (≈ 1.04 µM)	16 µg/mL (≈ 33.3 µM)	8 µg/mL (≈ 16.7 µM)	4 µg/mL (≈ 8.33 µM)	2 µg/mL (≈ 4.17 µM)	MIC [21]: 8 µg/mL (≈ 16.7 µM)
CCCc1c(Cl)c(O)c(Cl)c2c1Oc1c(Cl)c(O)c(Cl)c(CCC)c1C(=O)O2	2 µg/mL (≈ 4.29 µM)	2 µg/mL (≈ 4.29 µM)	2 µg/mL (≈ 4.29 µM)	2 µg/mL (≈ 4.29 µM)	4 µg/mL (≈ 8.58 µM)	8 µg/mL (≈ 17.2 µM)	2 µg/mL (≈ 4.29 µM)	2 µg/mL (≈ 4.29 µM)	8 µg/mL (≈ 17.2 µM)	2 µg/mL (≈ 4.29 µM)	2 µg/mL (≈ 4.29 µM)	2 µg/mL (≈ 4.29 µM)	4 µg/mL (≈ 8.58 µM)	2 µg/mL (≈ 4.29 µM)	4 µg/mL (≈ 8.58 µM)	0.25 µg/mL (≈ 0.536 µM)	4 µg/mL (≈ 8.58 µM)	4 µg/mL (≈ 8.58 µM)	2 µg/mL (≈ 4.29 µM)	1 µg/mL (≈ 2.15 µM)	MIC [21]: 4 µg/mL (≈ 8.58 µM)
